# Key:
# 20S-REGγ complex = molecular target: T1, 20S-REGγ complex (Homo sapiens, UniProt P61289); test: First confirmatory counter-screen of hits, fluorescence kinetic proteasome activity test; type: biochemical; conditions: counter-screen at 10, 20 and 40µM, 90min kinetic assay
# T1 construct: purchased Biotechne E-360-050 (20S); E-384-MTO (REGγ); host or cells: 20S from human erythrocytes
# Experimental: The 3 chemical libraries tested were obtained from the NIH : The Natural Products set (NP.V) consisting of 390 compounds, the Oncology Approved Drugs set (AOD.IX) consisting of 147 FDA-approved compounds and the Diversity set (DIV.VI) consisting of 1584 compounds. Libraries were prepared and screened with a Biomek FXP workstation in 384 well plates. Compounds activity was assessed using a fluorescence activity test of the proteasome using the Bz-VGR-AMC fluorogenic substrate (#BML-BW9375-0005, Enzo Life Sciences). […] After preparation of the mix, plates were incubated for 2h at 37°C before being read on a Spectramax i3 microplate reader from Molecular devices (Excitation wavelength : 345nm; Emission wavelength : 445nm). […]
# After QC verification, each plate was normalized to the mean of the VGR control. For every quadruplicate the most different value from the mean was eliminated and the fluorescence mean for each compound was calculated on the 3 remaining values. The percentage of inhibition of a compound was calculated according to, as follows : %Inhibition(compound) = (MeanREG,plate −Meancompound)/(MeanREG,plate −Mean20S,plate) × 100, [formula] for the condition with REG[…]. […]
# After conducting the screening and validating the quality control using a custom algorithm, they analyzed the data to select their hits. […]
# 20S-REGy complex = 20S-REGy complex (Homo sapiens, UniProt P61289); test: Peptide degradation assay with Fluorescamine (KH-52), with REGγ; type: biochemical; conditions: 20S-REGγ complex, 50 µM compound, 37°C
# Chain of 20S-REGy complex (P61289 whole entry, one chain of several): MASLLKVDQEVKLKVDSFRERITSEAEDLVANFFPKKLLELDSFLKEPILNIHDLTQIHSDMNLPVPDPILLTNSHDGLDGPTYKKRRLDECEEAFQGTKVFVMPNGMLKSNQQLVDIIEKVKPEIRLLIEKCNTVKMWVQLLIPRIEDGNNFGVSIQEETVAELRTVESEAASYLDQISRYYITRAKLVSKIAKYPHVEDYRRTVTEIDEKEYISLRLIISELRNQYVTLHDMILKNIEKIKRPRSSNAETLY
# Experimental: (§1) Degradation of the 52 amino acid peptide KH-52: […], Boulpicante et al.) by the 20S proteasome was followed by amino-acid group generation using Fluorescamine (#F9015, Sigma-Aldrich). The peptide substrate was incubated at 100µM with 25nM 20S, with or without 160nM REGγ and with different concentration of the tested compounds or DMSO. Assays were performed in 100µL in phosphate buffer (pH 6.8) and incubated at 37°C in a water bath for 8 hours. After 4, 6 and 8 hours, 22µL of sample were retrieved and added to 88µL of phosphate buffer before being stored at - 20°C prior to revelation. For the revelation, samples were thawed and filtered in a centrifuge 20min at 4°C 1kDa filters (#OD003C34, Pall Corporation). To avoid any amino group contamination, filtered were washed in phosphate buffer before use. 20µL of filtered-sample were plated in triplicates in a black 96-wells plate (#237108, Thermo Scientific) and 10µL of fluorescamine (1mg/mL, in 100% acetone) was added to the samples. The plate was placed on agitation for 1min before the reaction was stopped by adding 200µL of water to each well. The fluorescence intensity was measured using a FluoSTAR plate reader (BMG Labtech) with excitation wavelength at 355nm and emission wavelength at 460nm.
# (§2) These findings were established through both in vitro degradation assays and T cell experiments. […]
# [1] = tested on: human constitutive 20S proteasome (h20S); test: Peptide degradation assay with Fluorescamine (KH-52), 20S alone; type: biochemical; conditions: different concentrations tested, 37°C
# Experimental: as §1, §2
# [2] = tested on: MCA205-Glob-SL8-intron cells; test: MHC-I expression, antigen presentation and PD-L1 surface expression by flow cytometry; type: cell-based, mouse; conditions: 24 hours
# Experimental: 2×10^5 of MCA205-Glob-SL8-intron cells were plated in 6-well plates and incubated overnight. The next day cells were treated with different concentrations of drugs for 24h. After treatment, cells were harvested with trypsin before being stained with Zombie Aqua (#423102, Biolegend) and antibodies presented in Table 1 following the protocol provided by the supplier. Samples were acquired on a FACS LSRFortessa X20 (BD Biosciences) and data was analysed with FlowJo (V10) software (TreeStar, Inc.). Table 1: Panels of antibodies for the study of surface expression of MHC-I molecules and SIINFEKL presentation in MCA205-Glob-SL8-intron.
# Inventors previously reported a novel and unexpected role of the REGγ-20S complex in the degradation of MHC-I peptides in cancer. In order to elucidate the potential impact of compound 58 on the REGγ-20S complex's modulation of antigenic peptide degradation, they treated mouse MCA205 cells stably expressing the globin-SL8-intron construct with increasing concentrations of compound 58 for 24 hours.
# Additionally, they explored the impact of compound 58 on the expression of MHC-I on the surface of MCA205 cells stably expressing the globin-SL8-intron construct. After treating these cells with varying doses of compound 58 for 24 hours, they assessed the levels of murine MHC-I H2-K^b and H2-D^b using flow cytometry. The percentage of cells labeled positively for H2-K^b and H2-D^b in the treated conditions was compared to that in the DMSO control condition.
# Furthermore, inventors investigated whether compound 58 had the capability to alter PD-L1 expression on the cell surface of treated tumor cells. To examine this, they exposed MCA205 cells stably expressing the globin-SL8-intron construct to varying concentrations of compound 58 for 24 hours and subsequently assessed PD-L1 expression levels via flow cytometry.
# [3] = 5µm to 25 µM, compared to DMSO control
# T1 sequence (P61289 whole entry, one chain of several): as above
smiles,measurement,setting,value
Cc1ccc(N=Nc2ccc(C)cc2NC(=O)Nc2ccccc2F)cc1 [compound 58],inhibition of the effect of REGγ on proteasomal protein degradation,20S-REGγ complex,inhibit the effect of REGγ on proteasomal protein degradation
same,rate of peptide bond hydrolysis of KH-52,20S-REGy complex,notably decelerated the rate of peptide bond hydrolysis
same,rate of peptide bond hydrolysis of KH-52,[1],no impact
same,presentation of the SIINFEKL peptide (Kb-SIINFEKL complexes on the cell surface),"[2]; 25µM, 25-D1.16 antibody, compared to untreated cells",significant increase
same,expression of H2-D^b molecules on the cell surface,[2]; [3],dose-dependent increase
same,expression of H2-K^b molecules on the cell surface,[2]; [3],dose-dependent increase
same,PD-L1 expression on the cell surface,"[2]; varying concentrations, dose-dependent manner",significantly increased PD-L1 expression

# Source: EP4537820A1, “COMPOUND AND COMBINATIONS COMPRISING SAID COMPOUND TO IMPROVE IMMUNE RESPONSE” (Institut Gustave-Roussy, priority 2023, dated 2025)
